The source of these data is PubChem BioAssay (NCI).

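The compound was tested at five concentrations on cells cultured in 96-well plates, with a 48-hour exposure period. Definition used: TGI = concentration required for complete inhibition of growth.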

Common to all, as to experiment: DTP human tumour cell line panel, 48 h
The test system of test [1] is OVCAR-3 ovarian.
Test [2] concerns DU-145 prostate.
Test [3] has as its system OVCAR-5 ovarian.
Test [4] relates to SF-268 CNS.
Test [5] deals with MALME-3M melanoma.
In test [6] the test system is SK-MEL-5 melanoma.
Test [7] concerns 786-0 renal.
Test [8] has as its system RXF 393 renal.
For test [9], the system named is COLO 205 colon.
The subject of test [10] is OVCAR-4 ovarian.

Usually TGI stands for the concentration at which net growth stops. A lower TGI goes with more potent growth arrest. Take `Nc1cc(Cl)cc2cc(Cl)cnc12`: the TGI in test [1], in test [2], in [3], in test [4], in test [5] and in test [6] was more than 100 µM each time. The TGI in test [7], in [8], in test [9] and in [10] was more than 100 µM throughout.
On to `CC(C)OC(=O)c1ccc(NCC2=CC(=O)C=CC2=O)cc1`, for which the TGI in test [1] was found to be 21.6 µM; in test [2] it was 35.8 µM; in test [3] it was 38.9 µM; in test [4], 26.1 µM; in test [5] it was 22.7 µM; in [6], 32.2 µM. The TGI in test [7] stood at 28.5 µM; in [8] it was 26.2 µM; in test [9] it was 13.7 µM; in [10], 26.2 µM.
For `O=C1CC(Br)c2c(Br)sc(Br)c21` (centres undefined), the TGI in [1] came out at 32.9 µM; in test [2] it was 45.7 µM; in test [3], 31.9 µM; in test [4], 62.4 µM; in [5], 38.3 µM; in test [6] it was 35.4 µM. In addition, the TGI was 29.9 µM in [7], 32.9 µM in test [8], 33.9 µM in test [9] and 33.3 µM in test [10].
On to `O=c1[nH]c2cccc([N+](=O)[O-])c2c(=O)n1-c1ccc(Cl)cc1`, for which the TGI in test [1] is 23.5 µM; in test [2], 41.1 µM; in test [3], 36.5 µM; in [4], 30.4 µM; in test [5], 27.6 µM; in test [6], 24 µM. Moreover, the TGI was 55.9 µM in test [7], 37.1 µM in [8], 16.6 µM in [9] and 16.4 µM in test [10].
For `O=C(CSc1ncccn1)N/N=C/c1ccccc1OCc1ccccc1`, the TGI in test [1] is 33.9 µM; in [2], 96.7 µM; in [3], more than 100 µM; in test [4], more than 100 µM; in test [5], more than 100 µM; in test [6], 28.4 µM. Also, the TGI in test [7] was more than 100 µM; in test [8] it was 55.6 µM; in test [9], 38.8 µM; in test [10], more than 100 µM.
Regarding `OCC1OC(NC(=S)NCCC(F)(F)C(F)(F)C(F)(F)C(F)(F)C(F)(F)C(F)(F)F)C(O)C(O)C1O` (centres undefined), the TGI in test [1], in [2], in test [3], in test [4], in test [5] and in test [6] was more than 100 µM each time. Besides, the TGI in test [7], in test [8], in test [9] and in test [10] was more than 100 µM each time.
In the case of `CCOc1cccc(C=Nc2ccccc2SSc2ccccc2N=Cc2cccc(OCC)c2O)c1O`, the TGI in test [1] amounted to 8.16 µM; in test [2], 30.9 µM; in test [3], 14.6 µM; in [4] it was 21.5 µM; in test [5], 23.6 µM; in [6] it was 7.58 µM. Moreover, the TGI in test [7] came to 19.8 µM; in test [8], 34.9 µM; in [9], 12.4 µM; in [10] it was 14.3 µM.
Take `O=C1CSC(c2ccccc2)N1c1nc2cc3sc(N4C(=O)CSC4c4ccccc4)nc3cc2s1` (centres undefined): the TGI in [1], in test [2], in [3], in test [4], in test [5] and in [6] was more than 100 µM each time. The TGI in test [7] was more than 100 µM; in test [8], more than 100 µM; in test [9] it was more than 26.9 µM; in test [10], more than 100 µM.
As for `COC(=O)c1ccccc1/C=C1\Cc2c(C)c3c(c(C)c2C1=O)CCC3`, the TGI in test [1], in test [2], in [3], in [4], in test [5] and in test [6] was more than 100 µM throughout. Also, the TGI in test [7], in test [8], in test [9] and in test [10] was more than 100 µM in each case.
`OC1=C2c3ccccc3NC2Oc2cc(F)ccc21` (centres undefined): the TGI in test [1] stood at 27.9 µM; in [2] it was 37.5 µM; in test [3] it was 38.2 µM; in test [4], 40.3 µM; in [5], 48.5 µM; in test [6] it was 28.2 µM. For the same compound, the TGI in test [7] was 29.9 µM; in test [8], 38.3 µM; in [9] it was 27.6 µM; in [10], 50.6 µM.
In the case of `CC1=CC[C@H](C[C@H](C#CCCCC2OCCO2)O[Si](C(C)C)(C(C)C)C(C)C)C(=O)CC1`, the TGI in test [1], in test [2], in test [3], in test [4], in [5] and in test [6] was more than 100 µM each time. For the same compound, the TGI in test [7], in test [8], in test [9] and in test [10] was more than 100 µM in each case.
`C[N+]12CCCCC1C(COc1cccc3cccnc13)CCC2` (centres undefined): the TGI in test [1], in [2], in test [3], in test [4], in test [5] and in test [6] was more than 100 µM in each case. Besides, the TGI in [7], in test [8], in test [9] and in test [10] was more than 100 µM in each case.
Regarding `COc1cc(C2C3=C(COC3=O)OC(C)(C)Oc3cc4c(cc32)OCO4)cc(OC)c1O` (centres undefined), the TGI in test [1] was more than 100 µM; in test [2] it was more than 100 µM; in test [3] it was more than 100 µM; in test [4] it was more than 100 µM; in test [5] it was more than 100 µM; in test [6], 19.4 µM. For the same compound, the TGI in test [7] was more than 100 µM; in [8], 0.552 µM; in [9] it was 6.68 µM; in [10] it was more than 100 µM.
Consider `Cc1ccc(S(=O)(=O)NC(=O)NCc2ccc(S(N)(=O)=O)cc2)cc1`, for which the TGI in test [1], in [2], in test [3], in test [4], in test [5] and in test [6] was more than 100 µM in each case. The TGI in [7], in test [8], in test [9] and in test [10] was more than 100 µM in each case.
With `COc1nn(Cc2ccccn2)c2ccc([N+](=O)[O-])cc12`, the TGI in [1], in test [2], in test [3], in test [4], in [5] and in test [6] was more than 100 µM in each case. In addition, the concentration for total growth inhibition (TGI) in test [7], in [8], in test [9] and in test [10] was more than 100 µM throughout.
In the case of `CC(=O)OCC1OC(NC(=S)Nn2c(=O)[nH]c3ccccc3c2=O)C(OC(C)=O)C(OC(C)=O)C1OC(C)=O` (centres undefined), the TGI in [1], in test [2], in test [3], in [4], in test [5] and in [6] was more than 100 µM in each case. The TGI in [7], in test [8] and in test [9] was more than 100 µM each time.
Take `C=CC(C)(C)n1cc(C2=C3OC(=O)C(c4cn(C(C)(C)C=C)c5ccccc45)=C3OC2=O)c2ccccc21`: the TGI in test [1], in test [2], in [3], in test [4], in [5] and in test [6] was more than 100 µM in each case. For the same compound, the TGI in test [7], in [8], in test [9] and in [10] was more than 100 µM in each case.
Consider `O=C(/C=C/c1cccc([N+](=O)[O-])c1)N1CCN(CCOC(c2ccccc2)c2ccccc2)CC1`, for which the TGI in test [1] is more than 100 µM; in test [2] it was more than 100 µM; in test [3] it was more than 100 µM; in test [5], more than 100 µM; in [6], 28.2 µM; in [7], more than 100 µM. The TGI in [8] is more than 100 µM; in [9], 91.9 µM; in [10], more than 100 µM.
For the compound `CCN(CCCl)c1cc(CN(C)C)cc(NC(=O)c2ccc(C(=O)Nc3cc(CN(C)C)cc(N(CC)CCCl)c3)cc2)c1`, the TGI in test [1] amounted to 2.66 µM; in test [2], 13.7 µM; in test [3], 0.966 µM; in [4], 0.749 µM; in test [5], 0.88 µM; in test [6], 0.328 µM. The TGI is 1.3 µM in [7], 0.109 µM in [8], 0.551 µM in test [9] and 9.46 µM in [10].
Turning to `NCc1ccc(-c2ccc(CN)s2)s1`, the TGI in test [1], in [2], in test [3], in test [5], in test [6] and in test [7] was more than 100 µM each time. The TGI in test [8], in test [9] and in test [10] was more than 100 µM in each case.
Take `CCOC(=O)/C(C#N)=C/Nc1c(C)n(C)n(-c2ccccc2)c1=O`: the TGI in test [1], in test [2], in test [3], in test [5], in test [6] and in test [7] was more than 100 µM each time. For the same compound, the TGI in test [8], in test [9] and in test [10] was more than 100 µM throughout.
With `O=C(CC(O)(C(F)(F)F)C(F)(F)F)C(c1ccccc1)C(O)(C(F)(F)F)C(F)(F)F` (centres undefined), the TGI in test [1] is 83.4 µM; in [2] it was more than 100 µM; in test [3] it was more than 100 µM; in test [5], more than 100 µM; in test [6], more than 100 µM; in test [7] it was more than 100 µM. Moreover, the results for the TGI in [8], in test [9] and in test [10] were 25.2 µM, more than 100 µM and more than 100 µM, respectively.
Take `CC(C)CCCC(C)[C@H]1CC[C@H]2n3c(nnc3-c3ccccc3)CCC[C@]12C` (some centres undefined): the TGI came to 25.2 µM in test [1]; 83 µM in test [2]; 28.2 µM in [4]; 53.1 µM in test [5]; 25.1 µM in [6]; 34.8 µM in test [7]. Besides, the figures for the TGI in [8], in test [9] and in test [10] were 27 µM, 14.8 µM and 32.5 µM, respectively.
`COc1cccc(Nc2nc(C)c([N+](=O)[O-])c(Nc3cccc(OC)c3)n2)c1`: the TGI in test [1] is 57.2 µM; in [2], 56.1 µM; in test [3], more than 100 µM; in test [4] it was more than 100 µM; in [5], more than 100 µM; in [6] it was 77.2 µM. Moreover, the TGI in test [7] was more than 100 µM; in test [8], 35.2 µM; in [9], 44.9 µM.
In the case of `CC(C)(C)c1cc(S(=O)(=O)O)c2oc(-c3ccccc3)cc(=O)c2c1`, the TGI in test [1], in [2], in test [4], in test [5], in [6] and in test [7] was more than 100 µM in each case. In addition, the TGI in test [8] and in [9] was more than 100 µM throughout.
Consider `Cc1nc2ccccc2c(=O)n1NC(=O)c1ccccn1`, for which the TGI in [1], in test [2], in [4], in test [5], in test [6] and in [7] was more than 100 µM in each case. The TGI in [8], in [9] and in test [10] was more than 100 µM each time.
For the compound `COc1cc2c(/C=C3/C(=O)Nc4ccc(O)cc43)c(Cl)n(Cc3ccccc3)c2cc1C`, the TGI was determined as 0.704 µM in test [1]; 26 µM in [2]; 14.5 µM in [3]; 24.9 µM in test [4]; 0.629 µM in [5]; 2.46 µM in test [6]. Further, the results for the TGI in test [7], in test [8] and in test [10] were 3.28 µM, 5.06 µM and more than 100 µM, respectively.
